The source of these data is US20160101090A1, “INHIBITION OF TRK KINASE MEDIATED TUMOR GROWTH AND DISEASE PROGRESSION” (DECIPHERA PHARMACEUTICALS, LLC, priority 2014, published 2016).

pIC50: −log10 of the molar value. Where two headings read alike, the source gives them in different places.

For experiment [1], the target named is T1, NTRK1 (Homo sapiens, UniProt P04629). Put plainly: SK-N-SH phospho-NTRK1 Western blot. In kind it is cell-based. The settings on record: SK-N-SH cells, 4 h compound, NGF 100 ng/mL stimulated; read-out: IC50, inhibition of NTRK1 phosphorylation. Also on record: endogenous in cells; host or cells: SK-N-SH (ATCC HTB-11). The protocol: (§1) SK-N-SH cells (catalog #HTB-11) were obtained from the American Type Culture Collection (ATCC; Manassas, Va.). Briefly, SK-N-SH cells were grown in MEM medium supplemented with 10% characterized fetal bovine serum and 1% Penicillin-Streptomycin-L-glutamine solution (Invitrogen, Carlsbad, Calif.) at 37 degrees Celsius, 5% CO2, and 95% humidity. Cells were allowed to expand until reaching 70-95% confluency at which point they were subcultured or harvested for assay use.
T1 sequence (P04629 33-796): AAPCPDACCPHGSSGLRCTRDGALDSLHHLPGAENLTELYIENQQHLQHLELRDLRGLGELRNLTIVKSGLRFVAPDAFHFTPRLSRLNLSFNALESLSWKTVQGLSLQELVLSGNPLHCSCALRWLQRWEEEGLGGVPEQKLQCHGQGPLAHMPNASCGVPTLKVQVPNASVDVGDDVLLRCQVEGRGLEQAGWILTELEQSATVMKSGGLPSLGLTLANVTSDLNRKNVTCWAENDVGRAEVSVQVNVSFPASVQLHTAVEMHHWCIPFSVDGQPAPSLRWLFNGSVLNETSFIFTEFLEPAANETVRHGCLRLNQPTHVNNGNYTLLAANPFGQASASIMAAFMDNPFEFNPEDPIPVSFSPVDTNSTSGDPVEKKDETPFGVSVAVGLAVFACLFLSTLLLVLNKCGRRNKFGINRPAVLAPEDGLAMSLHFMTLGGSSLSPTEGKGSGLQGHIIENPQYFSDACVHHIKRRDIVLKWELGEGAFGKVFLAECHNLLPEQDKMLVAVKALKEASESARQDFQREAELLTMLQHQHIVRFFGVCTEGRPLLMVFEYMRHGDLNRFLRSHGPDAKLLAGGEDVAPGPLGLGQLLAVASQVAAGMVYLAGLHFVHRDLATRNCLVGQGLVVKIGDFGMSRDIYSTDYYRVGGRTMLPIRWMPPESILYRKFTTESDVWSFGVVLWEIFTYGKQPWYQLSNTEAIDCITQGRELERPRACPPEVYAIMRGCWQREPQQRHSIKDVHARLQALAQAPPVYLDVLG
Two hundred fifty thousand cells in growth medium were added per well in a 24-well tissue-culture treated plate. The plate was incubated overnight at 37 degrees Celsius, 5% CO2, and 95% humidity. The next day, growth media was aspirated, cells were washed with serum-free MEM media, and one milliliter serum-free MEM media was added per well. A serial dilution of test compound was added to the cells, and plates were incubated for 4 hours at 37 degrees Celsius, 5% CO2, and 95% humidity. Cells were then stimulated for 10 minutes with 100 ng/mL NGF (R&D Systems, Minneapolis, Minn.). […] Phospho-NTRK1 (Tyr674/675) was detected using an antibody from Cell Signaling Technology (Beverly, Mass.), ECL Plus detection reagent (GE Healthcare, Piscataway, N.J.) and a Molecular Devices Storm 840 phosphorimager in fluorescence mode. […] IC50 values were calculated using Prism software (Graphpad, San Diego, Calif.).

Experiment [2] relates to Transfected NIH-3T3 ETV6-NTRK3 cells. Put plainly: Transfected NIH-3T3 ETV6-NTRK3 cell proliferation assay (resazurin). Format: cell-based. The settings on record: Mus musculus, NIH3T3, 144 h; transfected NIH-3T3 cells, six days, 0.5% FBS; read-out: IC50, inhibition of proliferation, ETV6-NTRK3 transfected NIH-3T3. The protocol:
Transfected NIH-3T3 ETV6-NTRK3 cells were obtained from the laboratory of James Fagin, MD (Memorial Sloan Kettering Cancer Center). Briefly, cells were grown in DMEM media supplemented with 10% characterized fetal bovine serum, 1% Penicillin/Streptomycin/L-glutamine solution (Life Technologies, Carlsbad, Calif.) and 1 μg/mL puromycin (Invitrogen, Carlsbad, Calif.) at 37 degrees Celsius, 5% CO2, and 95% humidity. Cells were allowed to expand until reaching approximately 75% confluency at which point they were subcultured or harvested for assay use.

Experiment [3] deals with T1, NTRK1. Put plainly: K562 phospho-NTRK1 Western blot. In kind it is cell-based. The settings on record: K562 cells, 4 h compound, NGF 100 ng/mL stimulated; read-out: IC50, inhibition of NTRK1 phosphorylation. Details: endogenous in cells. The protocol: K562 cells (catalog #CCL-243) were obtained from the American Type Culture Collection (ATCC; Manassas, Va.). Briefly, K562 cells were grown in suspension in IMDM medium supplemented with 10% characterized fetal bovine serum and 1% Penicillin-Streptomycin-L-glutamine solution (Invitrogen, Carlsbad, Calif.) at 37 degrees Celsius, 5% CO2, and 95% humidity. Cells were allowed to expand until reaching one to three million cells per milliliter at which point they were subcultured or harvested for assay use.
One million cells in serum-free IMDM media were added per well in a 24-well tissue-culture treated plate. A serial dilution of test compound was added to cells and plates were incubated for 4 hours at 37 degrees Celsius, 5% CO2, and 95% humidity. Cells were then stimulated for 10 minutes with 100 ng/mL NGF (R&D Systems, Minneapolis, Minn.). Cells pelleted by centrifugation, washed with PBS, then lysed. Cell lysates were separated by SDS-PAGE and transferred to PVDF. Phospho-NTRK1 (Tyr674/675) was detected using an antibody from Cell Signaling Technology (Beverly, Mass.), ECL Plus detection reagent (GE Healthcare, Piscataway, N.J.) and a Molecular Devices Storm 840 phosphorimager in fluorescence mode. Blots were stripped and probed for total NTRK1 using an antibody from Santa Cruz Biotech (Santa Cruz, Calif.). IC50 values were calculated using Prism software (Graphpad, San Diego, Calif.).

The target in experiment [4] is T2, NTRK2 (SEQ ID No. 2) recombinant kinase (Homo sapiens, UniProt Q16620).
T2 construct: purchased Invitrogen
T2 sequence (Q16620 with tags, fused parts or gaps): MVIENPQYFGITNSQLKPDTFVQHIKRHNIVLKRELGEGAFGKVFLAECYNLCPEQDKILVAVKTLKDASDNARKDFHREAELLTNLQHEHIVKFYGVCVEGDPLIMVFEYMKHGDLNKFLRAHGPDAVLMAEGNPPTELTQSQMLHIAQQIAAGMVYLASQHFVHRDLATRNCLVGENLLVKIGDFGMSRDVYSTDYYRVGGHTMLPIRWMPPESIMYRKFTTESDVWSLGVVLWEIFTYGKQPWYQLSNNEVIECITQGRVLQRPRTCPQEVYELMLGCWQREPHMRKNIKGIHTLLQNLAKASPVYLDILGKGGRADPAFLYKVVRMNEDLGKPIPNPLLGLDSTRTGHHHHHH
Briefly: Recombinant NTRK2 kinase assay (ADP production coupled to pyruvate kinase/lactate dehydrogenase). In kind it is biochemical. The settings on record: recombinant NTRK2 4 nM, ATP 1 mM. The source says: NTRK2 protein sequence used for screening (SEQ ID No. 2)

In experiment [5] the target is T3, TPM3-NTRK1 (Homo sapiens, UniProt P04629).
T3 construct: chromosomal translocation of the kinase domain of NTRK1, NTRK2, or NTRK3 with a variety of N-terminal fusion partners; TPM3 N-terminal portion (fusion partner, P06753); endogenous in cells; host or cells: KM-12 (NCI DCTD Tumor Repository); also grown as subcutaneous xenograft in mice; the other entry of the earlier key: TPM3 (P06753, Tropomyosin alpha-3 chain)
T3 sequence (P04629 with tags, fused parts or gaps): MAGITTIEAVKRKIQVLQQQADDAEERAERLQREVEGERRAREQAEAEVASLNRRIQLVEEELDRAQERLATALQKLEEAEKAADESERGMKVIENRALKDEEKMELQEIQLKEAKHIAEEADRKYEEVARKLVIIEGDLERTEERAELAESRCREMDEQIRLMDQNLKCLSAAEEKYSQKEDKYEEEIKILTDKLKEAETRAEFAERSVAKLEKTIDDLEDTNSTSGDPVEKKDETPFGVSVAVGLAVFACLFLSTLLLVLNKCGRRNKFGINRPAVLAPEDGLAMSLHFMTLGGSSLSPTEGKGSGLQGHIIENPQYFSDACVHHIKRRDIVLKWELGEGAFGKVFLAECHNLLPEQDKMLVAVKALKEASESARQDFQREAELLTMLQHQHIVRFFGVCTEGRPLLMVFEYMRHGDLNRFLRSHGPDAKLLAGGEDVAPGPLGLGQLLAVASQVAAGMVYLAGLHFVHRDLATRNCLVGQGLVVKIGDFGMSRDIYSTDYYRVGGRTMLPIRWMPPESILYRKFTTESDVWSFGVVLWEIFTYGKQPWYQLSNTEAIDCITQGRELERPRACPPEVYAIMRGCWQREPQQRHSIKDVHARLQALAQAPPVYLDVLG
Put plainly: KM-12 phospho-NTRK1 Western blot. In kind it is cell-based. The following applies: KM-12 cells, 4 h compound; read-out: IC50, inhibition of TPM3-NTRK1 phosphorylation. The protocol:
Briefly, cells were grown in RPMI 1640 media supplemented with 10% characterized fetal bovine serum and 1% Penicillin/Streptomycin/L-glutamine solution (Invitrogen, Carlsbad, Calif.) at 37 degrees Celsius, 5% CO2, and 95% humidity. Cells were allowed to expand until reaching 70-95% confluency at which point they were subcultured or harvested for assay use.
Two hundred fifty thousand cells in growth medium were added per well in a 24-well tissue-culture treated plate. The plate was incubated overnight at 37 degrees Celsius, 5% CO2, and 95% humidity. The next day, a serial dilution of test compound was added to the cells, and plates were incubated for 4 hours at 37 degrees Celsius, 5% CO2, and 95% humidity. Media was then aspirated, cells were washed with PBS, and then lysed. Cell lysates were separated by SDS-PAGE and transferred to PVDF. Phospho-NTRK1 (Tyr674/675) was detected using an antibody from Cell Signaling Technology (Beverly, Mass.), ECL Plus detection reagent (GE Healthcare, Piscataway, N.J.) and a Molecular Devices Storm 840 phosphorimager in fluorescence mode. Blots were stripped and probed for total NTRK1 using an antibody from Santa Cruz Biotech (Santa Cruz, Calif.). IC50 values were calculated using Prism software (Graphpad, San Diego, Calif.).

The target of experiment [6] is T4, NTRK1 kinase phosphorylation (TPM3-NTRK1) (Homo sapiens, UniProt P04629).
T4 construct: chromosomal translocation of the kinase domain of NTRK1, NTRK2, or NTRK3 with a variety of N-terminal fusion partners; TPM3 N-terminal portion (fusion partner, P06753); endogenous in cells; host or cells: KM-12 (NCI DCTD Tumor Repository); also grown as subcutaneous xenograft in mice; the other entry of the earlier key: TPM3 (P06753, Tropomyosin alpha-3 chain)
Briefly: KM-12 TPM3-NTRK1 xenograft model, inhibition of NTRK1 phosphorylation in tumors after a single dose. Format: in vivo, Mice. The settings on record: KM12, mouse, po; for inhibition at 15 mg/kg: single dose 15 mg/kg PO; for inhibition at 7.5 mg/kg: single oral dose 7.5 mg/kg. The source says:
Mice were implanted subcutaneously and a single treatment was given on Day 8. At time points after the single oral dose, tumors were resected, frozen, pulverized, and then lysed. Lysates were separated by SDS-PAGE and protein was transferred to PVDF. Phospho-NTRK1 (Tyr674/675) was detected using an antibody from Cell Signaling Technology (Beverly, Mass.), ECL Plus detection reagent (GE Healthcare, Piscataway, N.J.) and a Molecular Devices Storm 840 phosphorimager in fluorescence mode. Blots were stripped and probed for total NTRK1 using an antibody from Santa Cruz Biotech (Santa Cruz, Calif.).

Experiment [7] deals with NTRK3 kinase phosphorylation (ETV6-NTRK3). Put plainly: Transfected NIH-3T3 ETV6-NTRK3 xenograft model, inhibition of NTRK3 phosphorylation in tumors after a single dose. The settings on record: single dose 15 mg/kg PO. Format: in vivo, Mice. The source says:
Mice were implanted subcutaneously and a single treatment was given on Day 6. At time points after the single oral doses, tumors were resected, frozen, pulverized, and then lysed. Lysates were separated by SDS-PAGE and protein was transferred to PVDF. Phospho-NTRK3 (Tyr516) was detected using an antibody from Cell Signaling Technology (Beverly, Mass.), ECL Plus detection reagent (GE Healthcare, Piscataway, N.J.) and a Molecular Devices Storm 840 phosphorimager in fluorescence mode.

The target in experiment [8] is T5, NTRK1 (SEQ ID No. 1) recombinant kinase (Homo sapiens, UniProt P04629).
T5 construct: purchased Invitrogen
T5 sequence (P04629 with tags, fused parts or gaps): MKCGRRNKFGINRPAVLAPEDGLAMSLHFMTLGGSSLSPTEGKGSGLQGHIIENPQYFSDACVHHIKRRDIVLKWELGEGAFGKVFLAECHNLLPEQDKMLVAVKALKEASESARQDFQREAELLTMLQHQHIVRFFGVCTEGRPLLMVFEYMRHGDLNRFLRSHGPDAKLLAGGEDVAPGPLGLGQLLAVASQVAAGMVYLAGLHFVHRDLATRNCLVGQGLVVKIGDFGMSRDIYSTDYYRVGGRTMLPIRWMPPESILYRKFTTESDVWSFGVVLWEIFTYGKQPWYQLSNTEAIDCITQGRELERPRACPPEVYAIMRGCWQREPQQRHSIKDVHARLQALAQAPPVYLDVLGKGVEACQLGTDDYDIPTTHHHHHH
Briefly: Recombinant NTRK1 kinase assay (ADP production coupled to pyruvate kinase/lactate dehydrogenase). In kind it is biochemical. The following applies: recombinant NTRK1 4.7 nM, ATP 1 mM. The source says:
NTRK1 protein sequence used for screening (SEQ ID No. 1)

For experiment [9], the system named is NIH-3T3 ETV6-NTRK3 xenograft. Briefly: Transfected NIH-3T3 ETV6-NTRK3 xenograft model, single-agent efficacy. Format: in vivo, Mice. The settings on record: 15 mg/kg, PO, BID, p<0.05. The source says: Mice were implanted subcutaneously and treatment began on Day 4. Treatments ended on Day 24 after three weeks of treatment.
Experiment [10] has as its system KM-12 TPM3-NTRK1 xenograft. Put plainly: KM-12 TPM3-NTRK1 xenograft model, single-agent efficacy. In kind it is in vivo, Mice. The following applies: PO, BID. An excerpt:
Mice were implanted subcutaneously and treatment began on Day 5. Treatments ended on Day 25 after three weeks of treatment.

Experiment [11] has as its target T6, NTRK2 (Homo sapiens, UniProt Q16620).
T6 construct: endogenous in cells; host or cells: SK-N-SH (ATCC HTB-11), differentiated with 10 µM all-trans retinoic acid
Briefly: SK-N-SH (retinoic acid differentiated) phospho-NTRK2 Western blot. In kind it is cell-based. The following applies: SK-N-SH cells differentiated with all-trans retinoic acid, BDNF 100 ng/mL stimulated; read-out: IC50, inhibition of NTRK2 phosphorylation. How it is done: as §1, with “subcultured. To induce expression of NTRK2, cells were grown in growth medium containing 10 μM all-trans retinoic acid for ten to fourteen days prior to harvesting cells” for “subcultured or harvested”
Two hundred fifty thousand cells differentiated with 10 μM all-trans retinoic acid in growth medium were added per well in a 12-well tissue-culture treated plate. The plate was incubated overnight at 37 degrees Celsius, 5% CO2, and 95% humidity. The next day, growth media was aspirated, cells were washed with serum-free MEM media, and one milliliter serum-free MEM media was added per well. […] Phospho-NTRK2 (Tyr706/707) was detected using an antibody from Cell Signaling Technology (Beverly, Mass.), ECL Plus detection reagent (GE Healthcare, Piscataway, N.J.) and a Molecular Devices Storm 840 phosphorimager in fluorescence mode. […] IC50 values were calculated using Prism software (Graphpad, San Diego, Calif.).

Where [12] appears, read: 3.75 mg/kg, not statistically significant.

T6 sequence (Q16620 32-822): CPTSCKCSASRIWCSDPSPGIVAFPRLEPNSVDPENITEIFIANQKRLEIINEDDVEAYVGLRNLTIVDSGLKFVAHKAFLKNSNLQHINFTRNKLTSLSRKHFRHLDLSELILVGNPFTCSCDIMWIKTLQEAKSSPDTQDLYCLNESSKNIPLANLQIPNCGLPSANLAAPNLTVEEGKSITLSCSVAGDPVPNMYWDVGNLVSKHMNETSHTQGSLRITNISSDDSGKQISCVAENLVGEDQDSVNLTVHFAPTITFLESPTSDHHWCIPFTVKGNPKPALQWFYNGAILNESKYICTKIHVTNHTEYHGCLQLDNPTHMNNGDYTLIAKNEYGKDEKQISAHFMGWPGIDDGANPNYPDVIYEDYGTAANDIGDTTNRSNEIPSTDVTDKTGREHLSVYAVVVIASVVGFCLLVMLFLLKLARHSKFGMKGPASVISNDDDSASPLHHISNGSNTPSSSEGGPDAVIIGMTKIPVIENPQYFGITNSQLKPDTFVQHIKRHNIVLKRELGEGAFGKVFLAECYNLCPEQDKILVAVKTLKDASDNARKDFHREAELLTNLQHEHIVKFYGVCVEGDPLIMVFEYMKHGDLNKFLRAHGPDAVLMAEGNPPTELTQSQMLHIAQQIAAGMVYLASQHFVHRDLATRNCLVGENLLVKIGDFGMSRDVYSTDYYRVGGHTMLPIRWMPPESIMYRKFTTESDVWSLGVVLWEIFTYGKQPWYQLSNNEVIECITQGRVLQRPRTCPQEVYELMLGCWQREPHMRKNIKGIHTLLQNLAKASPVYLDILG

Regarding `O=C(Nc1cc(Oc2cc(F)c(NC(=O)C3(C(=O)Nc4ccc(F)cc4)CC3)cc2F)ccn1)C1CC1` [Compound 1, N-(4-(2-(cyclopropanecarboxamido)pyridin-4-yloxy)-2,5-difluorophenyl)-N′-(4)cyclopropane-1,1-dicarboxamide], the pIC50 in [1] was 9.00; in experiment [2], 9.36; in experiment [3], 9.16; in [4], 8.34; in [5], 8.85; in experiment [8] it was 9.15. Moreover, the pIC50 in experiment [11] was 9.62. Further, the inhibition at 15 mg/kg was 79% in experiment [6] (24 hours post dose, read-out: inhibition of NTRK1 phosphorylation) and approximately 95% in [6] (through 18 hours post dose, read-out: inhibition of NTRK1 kinase phosphorylation in vivo). Besides, the inhibition at 7.5 mg/kg in experiment [6] (12 hours post dose) was 66%; in experiment [6] (18 hours post dose), 74%; in experiment [6] (24 hours post dose), 59%; in experiment [6] (for 8 hours), more than 95%. Further, the “inhibition of NTRK3 phosphorylation” value in [7] (18 hours post dose) is 63%; in [7] (24 hours post dose) it was 23%. The “inhibition of NTRK3 kinase phosphorylation in vivo” value in [7] (through 12 hours post dose) was more than 95%. Also, the tumor growth delay in experiment [9] (Day 4 to Day 24) was determined as 26.5 days; in [10] (setting [12]), 4.5 days; in experiment [10] (7.5 mg/kg, Day 5 to Day 25, p<0.05), 11.4 days; in experiment [10] (15 mg/kg, Day 5 to Day 25, p<0.05), 17.8 days. Moreover, in experiment [9], the “Day 8 % T/C” value was 6%. The “Day 11 % T/C” value in experiment [10] (setting [12]) is recorded as 39%; in experiment [10] (7.5 mg/kg, p<0.05), 22%; in experiment [10] (15 mg/kg, p<0.05), 16%.
